In ChEMBL document CHEMBL1201862, “PubChem BioAssay data set” (2004):
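All cell lines were grown in 96-well plates and treated with compound for 48 hours. Here, GI50 denotes the concentration required for 50% inhibition of growth.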 Calls of active or inactive are those of the source. Rule as the data show it: active = GI50 up to about 1.1 µM and inactive = higher.

What was measured:
Assay in all cases: NCI-60 cell line screen, 48 h
[1] = tested on: 786-0
[2] = tested on: ACHN
[3] = tested on: CAKI-1
[4] = tested on: HCT-116
[5] = tested on: HOP-62
[6] = tested on: HT-29
[7] = tested on: Hs-578T
[8] = tested on: KM12
[9] = tested on: Malme-3M
[10] = tested on: NCI-H23
[11] = tested on: NCI-H460
[12] = tested on: OVCAR-3
[13] = tested on: RPMI-8226
[14] = tested on: RXF 393
[15] = tested on: SF-295
[16] = tested on: SK-MEL-28
[17] = tested on: SNB-75
[18] = tested on: UACC-257
[19] = tested on: UACC-62
[20] = tested on: LOX IMVI

| Compound | GI50 [1] | GI50 [2] | GI50 [3] | GI50 [4] | GI50 [5] | GI50 [6] | GI50 [7] | GI50 [8] | GI50 [9] | GI50 [10] | GI50 [11] | GI50 [12] | GI50 [13] | GI50 [14] | GI50 [15] | GI50 [16] | GI50 [17] | GI50 [18] | GI50 [19] | GI50 [20] |
| --- | --- | --- | --- | --- | --- | --- | --- | --- | --- | --- | --- | --- | --- | --- | --- | --- | --- | --- | --- | --- |
| CCSc1n/c(=C\c2ccc(N(C)C)cc2)c2nnnn12 | > 100 µM (inactive) | > 100 µM (inactive) | > 100 µM (inactive) | > 100 µM (inactive) | > 100 µM (inactive) | > 100 µM (inactive) | > 100 µM (inactive) | > 100 µM (inactive) | > 100 µM (inactive) | > 100 µM (inactive) | > 100 µM (inactive) | > 100 µM (inactive) | > 100 µM (inactive) | > 100 µM (inactive) | 99.3 µM (inactive) | > 100 µM (inactive) | > 100 µM (inactive) | > 100 µM (inactive) | > 100 µM (inactive) | – |
| C[C@]12CCC(=O)O[C@H]1CCCCO2 | > 100 µM (inactive) | – | > 100 µM (inactive) | > 100 µM (inactive) | > 100 µM (inactive) | > 100 µM (inactive) | > 100 µM (inactive) | > 100 µM (inactive) | > 100 µM (inactive) | – | > 100 µM (inactive) | > 100 µM (inactive) | – | > 100 µM (inactive) | > 100 µM (inactive) | > 100 µM (inactive) | 87.5 µM (inactive) | > 100 µM (inactive) | > 100 µM (inactive) | > 100 µM (inactive) |
| Cc1ccc(S(=O)(=O)Nc2nc3ccccc3c(=O)n2C2CCCCC2)cc1 | > 100 µM (inactive) | > 100 µM (inactive) | 81.3 µM (inactive) | > 100 µM (inactive) | > 100 µM (inactive) | > 100 µM (inactive) | 62.5 µM (inactive) | > 100 µM (inactive) | – | > 100 µM (inactive) | 97.1 µM (inactive) | 76.7 µM (inactive) | > 100 µM (inactive) | 68.2 µM (inactive) | 23.1 µM (inactive) | > 100 µM (inactive) | 53.1 µM (inactive) | > 100 µM (inactive) | 77.4 µM (inactive) | > 100 µM (inactive) |
| C#CCN(C(=O)C(F)(F)F)C(/C=C\C(=O)OC)(C(=O)OCC)C(=O)OCC | > 100 µM (inactive) | > 100 µM (inactive) | – | – | > 100 µM (inactive) | > 100 µM (inactive) | > 100 µM (inactive) | > 100 µM (inactive) | > 100 µM (inactive) | > 100 µM (inactive) | > 100 µM (inactive) | > 100 µM (inactive) | > 100 µM (inactive) | > 100 µM (inactive) | > 100 µM (inactive) | > 100 µM (inactive) | > 100 µM (inactive) | – | > 100 µM (inactive) | > 100 µM (inactive) |
| O=C1CN(c2ccccc2)Cc2nc(Cl)ccc2N1 | > 100 µM (inactive) | > 100 µM (inactive) | > 100 µM (inactive) | > 100 µM (inactive) | > 100 µM (inactive) | > 100 µM (inactive) | 61.9 µM (inactive) | > 100 µM (inactive) | 58.1 µM (inactive) | – | > 100 µM (inactive) | – | > 100 µM (inactive) | 25.6 µM (inactive) | > 100 µM (inactive) | > 100 µM (inactive) | 40.4 µM (inactive) | > 100 µM (inactive) | 95.5 µM (inactive) | > 100 µM (inactive) |
| CCOC(=O)/C(=C\n1c(=O)sc2ccccc21)C(=O)c1ccccc1 | > 100 µM (inactive) | > 100 µM (inactive) | 25.4 µM (inactive) | > 100 µM (inactive) | > 100 µM (inactive) | > 100 µM (inactive) | 39.6 µM (inactive) | > 100 µM (inactive) | > 100 µM (inactive) | > 100 µM (inactive) | > 100 µM (inactive) | – | 39.6 µM (inactive) | > 100 µM (inactive) | 88.1 µM (inactive) | > 100 µM (inactive) | 53.8 µM (inactive) | > 100 µM (inactive) | > 100 µM (inactive) | > 100 µM (inactive) |
| [O-][S+](CC1(O)CCCCC1)c1ccccc1 (stereo unspecified) | > 100 µM (inactive) | > 100 µM (inactive) | > 100 µM (inactive) | > 100 µM (inactive) | > 100 µM (inactive) | > 100 µM (inactive) | > 100 µM (inactive) | > 100 µM (inactive) | > 100 µM (inactive) | > 100 µM (inactive) | > 100 µM (inactive) | – | < 0.01 µM (active) | > 100 µM (inactive) | > 100 µM (inactive) | > 100 µM (inactive) | > 100 µM (inactive) | > 100 µM (inactive) | > 100 µM (inactive) | > 100 µM (inactive) |
| COC(=O)CCc1ccc2c(c1)C(=O)CC2 | > 100 µM (inactive) | > 100 µM (inactive) | – | > 100 µM (inactive) | > 100 µM (inactive) | > 100 µM (inactive) | > 100 µM (inactive) | – | > 100 µM (inactive) | > 100 µM (inactive) | > 100 µM (inactive) | > 100 µM (inactive) | > 100 µM (inactive) | > 100 µM (inactive) | > 100 µM (inactive) | > 100 µM (inactive) | 29.7 µM (inactive) | > 100 µM (inactive) | – | > 100 µM (inactive) |
| C=C1CC2[C@H](C)C(=O)CCC2(C)C2=C1C1CCC(C(C)CCC(=C)C(C)C(=O)O)C1(C)CC2=O (stereo partly specified) | 20.4 µM (inactive) | 31.9 µM (inactive) | > 100 µM (inactive) | 32.5 µM (inactive) | 45.4 µM (inactive) | 62.1 µM (inactive) | > 100 µM (inactive) | 71.4 µM (inactive) | > 100 µM (inactive) | 41.9 µM (inactive) | 34.4 µM (inactive) | 30.5 µM (inactive) | – | 30.1 µM (inactive) | 62.5 µM (inactive) | > 100 µM (inactive) | 95.5 µM (inactive) | 29.2 µM (inactive) | 51.8 µM (inactive) | 17.9 µM (inactive) |
| COc1ccc(NC2=NCCO2)c2c1CCCC2 | 93.5 µM (inactive) | 29.6 µM (inactive) | 54.1 µM (inactive) | 28.8 µM (inactive) | – | 46.8 µM (inactive) | 25.9 µM (inactive) | 42.6 µM (inactive) | 34.1 µM (inactive) | 25.5 µM (inactive) | 34.5 µM (inactive) | 29.1 µM (inactive) | 24.6 µM (inactive) | 21.4 µM (inactive) | 27.3 µM (inactive) | 30.9 µM (inactive) | 27.3 µM (inactive) | 26.3 µM (inactive) | 24.4 µM (inactive) | 29.1 µM (inactive) |
| COc1ccc(-c2[nH]c(-c3ccc(OC)cc3)c(-c3ccccn3)c2-c2ccccn2)cc1 | > 100 µM (inactive) | 74 µM (inactive) | > 100 µM (inactive) | > 100 µM (inactive) | – | 21.6 µM (inactive) | > 100 µM (inactive) | 38.2 µM (inactive) | 21.1 µM (inactive) | 42.5 µM (inactive) | 31.8 µM (inactive) | 48.9 µM (inactive) | 20.2 µM (inactive) | 31.3 µM (inactive) | 38.2 µM (inactive) | – | 31.2 µM (inactive) | 40.2 µM (inactive) | 34.3 µM (inactive) | 24 µM (inactive) |
| C/C=C1\CC(C(=O)OCC)CCCCCCCCCCC1=O (stereo unspecified) | 70.1 µM (inactive) | 75 µM (inactive) | > 100 µM (inactive) | 33.4 µM (inactive) | > 100 µM (inactive) | 46.8 µM (inactive) | 28.9 µM (inactive) | 41.3 µM (inactive) | 32.4 µM (inactive) | 37.6 µM (inactive) | 54.1 µM (inactive) | – | – | 55.8 µM (inactive) | 57.4 µM (inactive) | > 100 µM (inactive) | 27.7 µM (inactive) | 37.8 µM (inactive) | 91.2 µM (inactive) | 28.8 µM (inactive) |
| C=CCOc1ccc(C(=N/NC(=O)c2ccccc2)/N=N/c2ccc([N+](=O)[O-])cc2)cc1OC | > 100 µM (inactive) | > 100 µM (inactive) | > 100 µM (inactive) | 58.6 µM (inactive) | > 100 µM (inactive) | > 100 µM (inactive) | > 100 µM (inactive) | > 100 µM (inactive) | > 100 µM (inactive) | > 100 µM (inactive) | 64.1 µM (inactive) | > 100 µM (inactive) | – | > 100 µM (inactive) | > 100 µM (inactive) | > 100 µM (inactive) | > 100 µM (inactive) | > 100 µM (inactive) | > 100 µM (inactive) | 82.6 µM (inactive) |
| COC(=O)c1ccccc1C1CN=NC12Cc1ccc(C)c(C)c1C2=O (stereo unspecified) | > 100 µM (inactive) | > 100 µM (inactive) | 79.6 µM (inactive) | 29.6 µM (inactive) | > 100 µM (inactive) | 27.2 µM (inactive) | > 100 µM (inactive) | 29.2 µM (inactive) | > 100 µM (inactive) | 19.1 µM (inactive) | 52.4 µM (inactive) | > 100 µM (inactive) | – | 76.4 µM (inactive) | 46.5 µM (inactive) | > 100 µM (inactive) | 61.2 µM (inactive) | 25.8 µM (inactive) | 74 µM (inactive) | 14.6 µM (inactive) |
| COc1cc(OC)c(-c2oc3ccccc3c(=O)c2O)c(OC)c1 | 13.4 µM (inactive) | > 29 µM (inactive) | 5.74 µM (inactive) | 3.76 µM (inactive) | – | 3.08 µM (inactive) | 2.39 µM (inactive) | 1.99 µM (inactive) | 2.86 µM (inactive) | 17.3 µM (inactive) | 3.21 µM (inactive) | 2.63 µM (inactive) | 4.28 µM (inactive) | 2.43 µM (inactive) | 2.44 µM (inactive) | > 22.8 µM (inactive) | 6.01 µM (inactive) | > 91.6 µM (inactive) | 2.69 µM (inactive) | 5.98 µM (inactive) |
